US20090118318A1, “Novel Diazaspiroalkanes and Their Use for Treatment of CCR8 Mediated Diseases” (priority 2005, published 2009)

How the values were obtained:
[1] = molecular target: T1, human recombinant chemokine CCR8 receptor (Homo sapiens, UniProt P51685); test: CCL1 SPA Binding Assay; settings: inhibition of 125I CCL1 binding to CCR8 membranes from transfected CHO-K1 cells
T1 construct: purchased Euroscreen ES-136-M; host or cells: CHO-K1 cells (transfected), membrane preparation
Experimental: Membranes from CHO-K1 cells transfected with human recombinant chemokine CCR8 receptor (ES-136-M) were purchased from Euroscreen. Membrane preparations are stored at −70C in 7.5 mM Tris-Cl pH 7.5, 12.5 mM MgCl2, 0.3 mM EDTA, 1 mM EGTA, 250 mM sucrose until used.
The CCR8 membranes ([…]) were preincubated with Wheat Germ Agglutinin SPA beads (4.05 mg/ml) in assay buffer (50 mM HEPES, 1 mM CaCl2x2H2O, 5 mM MgCl2x6H2O, 75 mM NaCl, 0.1% BSA) at pH=7.4 for 2 hours on ice. A […] dose-response curve (final concentrations 50 μM, 16.7 μM, 5.6 μM, 1.9 μM, 0.62 μM, 0.21 μM, 0.069 μM, 0.023 μM) was prepared by diluting compounds by serial dilution 1:3 in DMSO. In the screening plate (Polystyrene NBS plates, Costar Corning 3604) 1 μl from the DMSO solutions of compounds was transferred into each well. 1 μl of DMSO was added to the blank control wells and 1 μl unlabeled CCL1 ([…]) was added to background control wells. 50 μl of the SPA bead-membrane mixture was added into each well. Finally, 50 μl ([…]) ^125I CCL1 (2000 Ci/mM) was added to each well. Plates were then incubated at RT with shaking (700 rpm) for 90 minutes followed by 30 minutes at RT without shaking. The plate was read in a Wallac MicroBeta counter for 2 minutes/well.

[2] = Human Microsomal Stability Assay; assay type: in vitro ADME; settings: human microsomes (Xenotech); human microsomes 1 mg protein/mL, compound 2.5 μM, NADPH 2 mM, pH 7.4, 37° C.; read-out: Intrinsic clearance
Experimental: Human Microsomal Stability Assay
Samples at four time-points (0, 5, 15 and 30 minutes) are withdrawn and the enzymatic reaction is terminated by protein precipitation with 1% acetic acid in acetonitrile. The incubations are performed on a thermostated plate (37° C.) placed on a Tecan worktable, and all liquid handling was performed robotically. After centrifugation of the samples, the supernatants are pooled in sets of four before they are analysed by liquid chromatography with tandem mass spectrometry detection (LC/MS/MS) using multiple reaction monitoring (MRM). Data are presented as intrinsic Clearance (CLint), μl/min/mg protein, calculated from the initial linear part of the compound disappearance curve.

T1 sequence (P51685 whole entry): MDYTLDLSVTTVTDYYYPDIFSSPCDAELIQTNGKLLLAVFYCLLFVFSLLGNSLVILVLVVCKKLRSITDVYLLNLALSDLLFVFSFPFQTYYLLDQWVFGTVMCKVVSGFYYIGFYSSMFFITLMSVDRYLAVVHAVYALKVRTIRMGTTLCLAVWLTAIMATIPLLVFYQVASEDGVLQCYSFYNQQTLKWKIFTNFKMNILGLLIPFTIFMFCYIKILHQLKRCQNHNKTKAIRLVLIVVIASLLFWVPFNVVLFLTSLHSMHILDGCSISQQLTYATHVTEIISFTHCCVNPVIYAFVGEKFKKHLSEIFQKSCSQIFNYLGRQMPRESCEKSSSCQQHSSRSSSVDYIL

Compound	IC50 [1]	microsomal CLint at 2.5 μM [2]
CC(C)COc1ccccc1CN1CCC2(CC1)CCN(C(=O)c1ccccc1CC(=O)O)CC2 [A, (2-{[9-(2-isobutoxybenzyl)-3,9-diazaspiro[5.5]undec-3-yl]carbonyl}phenyl)acetic Acid, reference compound]	1060 nM	
CC(C)COc1ccccc1CN1CCC2(CC1)CCN(C(=O)c1ccccc1C(=O)O)CC2 [B, 2-{[9-(2-isobutoxybenzyl)-3,9-diazaspiro[5.5]undec-3-yl]carbonyl}benzoic Acid, reference compound]	1370 nM	
O=C(O)Cc1ccccc1C(=O)N1CCC2(CCN(Cc3ccccc3Oc3ccccc3)CC2)CC1 [Example 1, (2-{[9-(2-phenoxybenzyl)-3,9-diazaspiro[5.5]undec-3-yl]carbonyl}phenyl)acetic Acid]	643 nM	< 10 µL/min/mg
COc1ccccc1Oc1cccc(CN2CCC3(CC2)CCN(C(=O)c2ccc(OCC(=O)O)cc2)CC3)c1 [Example 10, [4-({9-[3-(2-methoxyphenoxy)benzyl]-3,9-diazaspiro[5.5]undec-3-yl}carbonyl)phenoxy]acetic Acid]	405 nM	< 10 µL/min/mg
COc1ccccc1Oc1cccc(CN2CCC3(CC2)CCN(C(=O)c2ccccc2OCC(=O)O)CC3)c1 [Example 11, [2-({9-[3-(2-methoxyphenoxy)benzyl]-3,9-diazaspiro[5.5]undec-3-yl}carbonyl)phenoxy]acetic Acid]	520 nM	< 10 µL/min/mg
COc1ccccc1Oc1cccc(CN2CCC3(CC2)CCN(C(=O)c2ccc(Cl)cc2)CC3)c1 [Y, 3-(4-chlorobenzoyl)-9-[3-(2-methoxyphenoxy)benzyl]-3,9-diazaspiro[5.5]undecane, reference compound]		> 200 µL/min/mg

The remaining lines, values ahead:

IC50 [1]	microsomal CLint at 2.5 μM [2]	Compound
196 nM	< 10 µL/min/mg	O=C(O)Cc1cc(Cl)ccc1C(=O)N1CCC2(CCN(Cc3ccccc3Oc3ccccc3)CC2)CC1 [Example 2, (5-chloro-2-{[9-(2-phenoxybenzyl)-3,9-diazaspiro[5.5]undec-3-yl]carbonyl}phenyl)acetic Acid]
144 nM	< 10 µL/min/mg	O=C(O)Cc1ccccc1C(=O)N1CCC2(CCN(Cc3cccc(Oc4ccccc4)c3)CC2)CC1 [Example 3, (2-{[9-(3-phenoxybenzyl)-3,9-diazaspiro[5.5]undec-3-yl]carbonyl}phenyl)acetic Acid]
58 nM	< 10 µL/min/mg	COc1ccccc1Oc1ccccc1CN1CCC2(CC1)CCN(C(=O)c1ccccc1CC(=O)O)CC2 [Example 4, [2-({9-[2-(2-methoxyphenoxy)benzyl]-3,9-diazaspiro[5.5]undec-3-yl}carbonyl)phenyl]acetic Acid]
17 nM	< 10 µL/min/mg	COc1ccccc1Oc1ccccc1CN1CCC2(CC1)CCN(C(=O)c1ccc(Cl)cc1CC(=O)O)CC2 [Example 5, [5-chloro-2-({9-[2-(2-methoxyphenoxy)benzyl]-3,9-diazaspiro[5.5]undec-3-yl}carbonyl)phenyl]acetic Acid]
81 nM	16 µL/min/mg	COc1ccccc1Oc1ccccc1CN1CCC2(CC1)CCN(C(=O)c1cc(Cl)c(Cl)cc1C(=O)O)CC2 [Example 6, 4,5-dichloro-2-({9-[2-(2-methoxyphenoxy)benzyl]-3,9-diazaspiro[5.5]undec-3-yl}carbonyl)benzoic Acid]
100 nM	< 10 µL/min/mg	COc1ccccc1Oc1ccccc1CN1CCC2(CC1)CCN(C(=O)c1ccccc1NC(=O)C(=O)O)CC2 [Example 7, {[2-({9-[2-(2-methoxyphenoxy)benzyl]-3,9-diazaspiro[5.5]undec-3-yl}carbonyl)phenyl]amino}(oxo)acetic Acid]
42 nM	< 10 µL/min/mg	COc1ccccc1Oc1cccc(CN2CCC3(CC2)CCN(C(=O)c2ccccc2CC(=O)O)CC3)c1 [Example 8, [2-({9-[3-(2-methoxyphenoxy)benzyl]-3,9-diazaspiro[5.5]undec-3-yl}carbonyl)phenyl]acetic Acid]
71 nM	< 10 µL/min/mg	COc1ccccc1Oc1cccc(CN2CCC3(CC2)CCN(C(=O)c2ccccc2C(=O)O)CC3)c1 [Example 9, 2-({9-[3-(2-methoxyphenoxy)benzyl]-3,9-diazaspiro[5.5]undec-3-yl}carbonyl)benzoic Acid]
